As a reminder, the EC50 is the concentration at which the effect is half-maximal.

In assay [1] the test system is MCV-positive MCC cell lines (MKL-1, MKL-2, MS-1 and WaGa). The assay is described as follows: Cell-Titer Glo growth inhibition by YM155. It counts as cell-based, human. The following applies: 48 h. An excerpt:
(§1) Seven Merkel cell carcinoma cell lines: MKL-1, MKL-2, MS-1, UISO, MCC13, MCC26 and WaGa (kind gift of Jurgen Becker (Houben et al., Merkel cell polyomavirus-infected Merkel cell carcinoma cells require expression of viral T antigens. J Virol 84, 7064 (July, 2010); Ronan et al., Merkel cell carcinoma: in vitro and in vivo characteristics of a new cell line. J Am Acad Dermatol 29, 715 (November, 1993); Rosen et al., Establishment and characterization of a neuroendocrine skin carcinoma cell line. Lab Invest 56, 302 (March, 1987)); NCI-H69 small cell lung cancer cell line (ATCC); 293 human embryonic kidney cells (ATCC); U2OS osteosarcoma cell line (kind gift of Ole Gjoerup); BJhTERT immortalized foreskin fibroblast cell line (kind gift of Ole Gjoerup); and BJ primary foreskin fibroblasts (ATCC) were used to screen and evaluate the small molecules examined in this study (Houben et al., J Virol 84, 7064 (July, 2010); Ronan et al., J Am Acad Dermatol 29, 715 (November, 1993); Rosen et al., Lab Invest 56, 302 (March, 1987)). […]
(§2) Serial drug dilutions from 10^−4 M to 10^−9 M were used on MCC and non-MCC cell lines. […] Cell viability was then measured using Cell Titer Glo (Promega) kit following manufacturer's instructions as described previously. […] EC50 doses for the drugs were calculated using a four parameter logistic equation (GraphPad Prism).

The subject of assay [2] is MCV-negative MCC13, BJ and BJhTERT cells. Briefly: Cell-Titer Glo growth curves for YM155. The class given is cell-based, human. Particulars: 48 h.
From the text: as §1, §2

Assay [3] concerns MCV-negative UISO and MCC26. The assay is described as follows: Cell-Titer Glo growth curves for YM155. Particulars: 48 h. It counts as cell-based, human.
From the text: as §1, §2

In assay [4] the test system is survivin protein expression in MKL-1 cells. Briefly: Immunoblotting for survivin. Particulars: after 12 h treatment. It counts as cell-based, human. How it is done:
Cells were lysed in buffer (RIPA or 10 mM Tris-HCl pH 8.0, 0.6% SDS) containing protease inhibitor cocktail (Roche). Lysates were electrophoresed in 10% SDS-PAGE, transferred to nitrocellulose membrane (Amersham) and reacted with specific antibodies (CM2B4, (1:5000 dilution) (Shuda et al., Human Merkel cell polyomavirus infection I. MCV T antigen expression in Merkel cell carcinoma, lymphoid tissues and lymphoid tumors. Int J Cancer 125, 1243 (Sep. 15, 2009)), cleaved PARP, cleaved caspase3, survivin, XIAP, p53, Bcl-2, Bax (1:1000 dilution, Cell Signalling Technologies), E2F1, cyclin E (1:1000 dilution, Santa Cruz Biotechnology), LC3 (1:1000 dilution, Novus Biologicals) or α-tubulin (1:5000 dilution, Sigma)) overnight at 4° C., followed by anti-mouse (1:5000 dilution, Amersham) or anti-rabbit IgG-HRP conjugates (1:3000 dilution, Cell signaling) for 1 hour at room temperature. Peroxidase activity was detected using Western Lightning plus-ECL reagent (Perkin Elmer). For quantitative immunoblotting, Odyssey Infrared Imaging system (LICOR) was used with IRDye 800-conjugated secondary antibodies (1:5000 dilution, Rockland Immuno chemicals).

The next assay relates to MKL-2 xenografts. The assay is described as follows: MKL-2 xenograft drug treatment. The class given is in vivo, NSG mice. The following applies: continuously at 4 mg/kg.

Method for MKL-2 xenografts: Cells of Merkel cell polyomavirus (+) carcinoma cell lines MKL-1, MS-1, WaGa, and MKL-2 were checked for viability >90% by trypan blue staining, resuspended in PBS (2×10^7 cells in 100 μl) and inoculated subcutaneously into the right flank of mice.

As for `COCCn1c2c([n+](Cc3cnccn3)c1C)C(=O)c1ccccc1C2=O.[Br-]` [YM155, 1-(2-methoxyethyl)-2-methyl-4,9-dioxo-3-(pyrazin-2-ylmethyl)-4,9-dihydro-1H-naphtho[2,3-d]imidazol-3-ium bromide], the “sensitivity to YM155, dose-dependent growth curves” value was “sensitive” in assay [1] (MKL-1, MKL-2, MS-1 and WaGa); “relative resistance” in assay [2]; “intermediate sensitivity” in assay [3]. Moreover, in assay [1] (Homo sapiens, MKL-1, range over MCV-positive MCC cell lines, Cell-Titer Glo, read-out: EC50, inhibiting MCV-positive MCC cell growth in vitro), the EC50 is 1.34 to 12.2 nM. For the same compound, the survivin protein expression entry in assay [4] is given as “dose-dependent decrease”. For the same compound, the “animals surviving, of 10” value with MKL-2 xenografts was “three survived more than four months”.

The record behind these values is patent US9662329B2, “Use of survivin antagonists in polyomavirus-related disease” (University of Pittsburgh—Of the Commonwealth System of …, priority 2012, dated 2017).
